How the values were obtained:
[1] = tested on: endometrial stromal cells; test: Morphometric analysis of stromal cells in hormone-stimulated endometrium assembloid; format: cell-based, human
Experimental: (§1) Hormone stimulation scheme aimed to recapitulate the mid-secretory phase of human endometrial cycle when receptive phenotype optimal for embryo implantation, known as window of implantation, is acquired. For this purpose, β-oestradiol (E2) stimulation was started in upper and lower compartments for 4 days to simulate the proliferative phase of human endometrial cycle. A total volume of 300 μL of organoid media supplemented by 2% charcoal stripped FBS (Sigma Aldrich, F6765) and 10 nM of β-oestradiol (E2, Sigma E4389) was added to the top compartment of the transwell culture system. A total volume of 1 mL of hEnSC medium supplemented by 2% charcoal stripped FBS (Sigma Aldrich, F6765) and 10 nM of β-oestradiol (E2, Sigma E4389) was added to the lower compartment. Media were changed each 2 days. After 4 days, upper and lower compartments were stimulated with full hormone mixture containing E2, progesterone (P4) and 8-bromoadenosine 3′,5′-cyclic monophosphate (CAMP) for 8 days. A total volume of 300 μL of organoid media supplemented by 2% charcoal stripped FBS (Sigma Aldrich, F6765), 10 nM of E2 (Sigma E4389), 1 μM of P4 (Sigma P7556) and 1 μM of cAMP (Sigma, B7880) was added to the top compartment of the transwell culture system. A total volume of 1 mL of hEnSC medium supplemented by 2% charcoal stripped FBS (Sigma Aldrich, F6765) and […] (Sigma E4389), 1 μM of P4 (Sigma P7556) and […] (Sigma, B7880) was added to the lower compartment. Media were changed each 2 days.
(§2) Morphometric analyses were performed on stromal and epithelial compartments on proliferative phase (after 4 days of E2 stimulation) and secretory phase (after 8 days of stimulation with E2, P4 and cAMP).
Cell segmentation and cell morphometric analyses were performed from confocal microscopy images of stromal and epithelial compartment. […]
Stromal length (μm) and width (μm) were acquired for each cell using the line tool from Fiji. […] In this case, only line measurements (in μm) corresponding to length and width of each stromal cell were recorded to calculate length/width ratio. […]

[2] = tested on: epithelial endometrial cells; test: Morphometric analysis of surface epithelial cells in hormone-stimulated endometrium assembloid; format: cell-based, human
Experimental: as §1, §2
Cell segmentation and cell morphometric analyses were performed from confocal microscopy images of stromal and epithelial compartment. Vimentin and cytokeratin-7 were used as stromal and epithelial markers, respectively, to determine stromal and epithelial compartment. Phalloidin signal was used to perform cell segmentation of stromal and epithelial compartments. Cell segmentation was done in an intermediate field of the whole Z-stack, choosing a relatively flat area to maximize the accuracy of the segmentation using Fiji (https://imagej.net/software/fiji/).
Epithelial cells were segmented manually using polygon selection tool from Fiji. Cell contour was drawn with multiple points to accurately fit perimeter of each cell segmented. Fit spline option (“Edit”>“Selection”>“Fit spline”) was used in all cases to smooth cell contour and maximize the match of manual cell segmentation with cell perimeter. Each Region Of Interest (ROI) corresponding to each epithelial cell segmented was added to ROI manager (“Analyse”>“Tools” >“ROI manager”).
Once acquired all ROI, the following measurements were set (“Analyse”>“Set Measurements”): area (μm^2), perimeter (μm), and shape descriptors roundness, circularity, aspect ratio, and solidity. Roundness ((4·area)/(π·major axis^2)) ranges from 0 to 1 indicating elongated or circle-like shape. Circularity (4π·area/perimeter^2) ranges from 0 to 1 and correlates with shape roughness. Aspect ratio is defined as the ratio between major and minor axis of the best fit ellipse. Solidity, defined as a ratio between area and convex area, ranges from 0 to 1, describing a concave or convex shape.

[3] = stromal cells, proliferative (E2 4 days) vs secretory (E2, P4 and cAMP 8 days)

Compound: C[C@]12CC[C@@H]3c4ccc(O)cc4CC[C@H]3[C@@H]1CC[C@@H]2O [E2, β-oestradiol]
- length/width ratio (median) ([1]; stromal cells in 3D, proliferative phase = E2 4 days, secretory phase = E2, P4 and cAMP 8 days): 9.14
- cell length (median) [1, 3]: 105.4 μm
- cell width (median) [1, 3]: 11.39 μm
- surface area (median) ([2]; proliferative (E2 4 days) vs secretory (E2, P4 and cAMP 8 days)): 75.67 μm^2
- aspect ratio (AR) (median) ([2]; proliferative vs secretory): 1.584
- cell perimeters (median) ([2]; proliferative vs secretory): 34.61 μm
- cell roundness (median) ([2]; proliferative vs secretory): 0.6315
- circularity (median) ([2]; proliferative vs secretory): 0.7920
- solidity (median) ([2]; proliferative vs secretory): 0.9820
